ChEMBL document CHEMBL1132685, “Nonpeptide glycoprotein IIB/IIIA inhibitors. 19. A new design paradigm employing linearly minimized, centrally constrained, exosite inhibitors” (Bioorg Med Chem Lett, 1999)
pIC50: −log10 of the molar value.

Molecular target: Integrin alpha-IIb/beta-3 (Homo sapiens, UniProt P05106+P08514)
Experiment: Inhibition of glycoprotein IIb/III integrin mediated fibrinogen binding to activated platelets
Assay type: functional

Sequence of Integrin alpha-IIb/beta-3 (P05106 27-788 limits assumed): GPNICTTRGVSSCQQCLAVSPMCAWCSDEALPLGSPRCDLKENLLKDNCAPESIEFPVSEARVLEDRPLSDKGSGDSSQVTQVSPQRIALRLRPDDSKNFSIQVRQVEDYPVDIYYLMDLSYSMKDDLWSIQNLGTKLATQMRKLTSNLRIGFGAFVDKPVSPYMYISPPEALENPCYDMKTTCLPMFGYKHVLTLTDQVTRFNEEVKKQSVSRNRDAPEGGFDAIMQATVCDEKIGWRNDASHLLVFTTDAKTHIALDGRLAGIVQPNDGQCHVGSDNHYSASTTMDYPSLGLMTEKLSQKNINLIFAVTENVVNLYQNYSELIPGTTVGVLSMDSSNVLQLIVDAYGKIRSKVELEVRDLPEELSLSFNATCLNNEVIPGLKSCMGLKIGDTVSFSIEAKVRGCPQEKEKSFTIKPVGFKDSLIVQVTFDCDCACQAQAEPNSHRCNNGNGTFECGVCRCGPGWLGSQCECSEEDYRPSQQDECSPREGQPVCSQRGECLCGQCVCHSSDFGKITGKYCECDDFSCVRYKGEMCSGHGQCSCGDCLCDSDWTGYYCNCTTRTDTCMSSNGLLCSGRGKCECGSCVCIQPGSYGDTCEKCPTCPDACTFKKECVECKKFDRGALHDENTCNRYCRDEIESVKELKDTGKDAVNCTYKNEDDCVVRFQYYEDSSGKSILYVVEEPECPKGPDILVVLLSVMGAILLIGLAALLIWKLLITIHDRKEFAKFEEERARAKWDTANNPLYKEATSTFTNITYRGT
Sequence of Integrin alpha-IIb/beta-3 (P08514 32-887 limits assumed): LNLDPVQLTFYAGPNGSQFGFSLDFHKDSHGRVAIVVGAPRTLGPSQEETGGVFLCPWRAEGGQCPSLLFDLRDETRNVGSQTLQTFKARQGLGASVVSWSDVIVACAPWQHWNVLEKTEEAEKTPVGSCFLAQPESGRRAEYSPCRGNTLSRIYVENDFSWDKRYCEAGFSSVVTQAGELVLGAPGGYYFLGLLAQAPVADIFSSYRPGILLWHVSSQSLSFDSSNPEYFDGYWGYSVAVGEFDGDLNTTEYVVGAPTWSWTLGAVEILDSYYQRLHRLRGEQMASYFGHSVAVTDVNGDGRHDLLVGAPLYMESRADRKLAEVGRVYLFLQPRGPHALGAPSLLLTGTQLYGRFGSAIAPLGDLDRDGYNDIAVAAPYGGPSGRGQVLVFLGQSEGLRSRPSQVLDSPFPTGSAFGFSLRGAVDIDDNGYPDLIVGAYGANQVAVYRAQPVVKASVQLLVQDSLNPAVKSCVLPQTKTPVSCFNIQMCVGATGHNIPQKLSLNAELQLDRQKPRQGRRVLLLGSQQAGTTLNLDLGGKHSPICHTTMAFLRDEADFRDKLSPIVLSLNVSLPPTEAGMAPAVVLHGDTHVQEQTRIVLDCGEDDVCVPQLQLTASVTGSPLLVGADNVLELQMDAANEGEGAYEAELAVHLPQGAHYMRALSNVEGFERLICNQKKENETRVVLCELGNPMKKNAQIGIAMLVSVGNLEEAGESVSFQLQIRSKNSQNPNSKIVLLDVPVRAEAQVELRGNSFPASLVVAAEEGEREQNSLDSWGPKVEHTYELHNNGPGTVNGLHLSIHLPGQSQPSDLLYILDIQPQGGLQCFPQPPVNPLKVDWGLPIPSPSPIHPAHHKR
Sequence of Integrin alpha-IIb/beta-3 (P08514 891-1039 limits assumed): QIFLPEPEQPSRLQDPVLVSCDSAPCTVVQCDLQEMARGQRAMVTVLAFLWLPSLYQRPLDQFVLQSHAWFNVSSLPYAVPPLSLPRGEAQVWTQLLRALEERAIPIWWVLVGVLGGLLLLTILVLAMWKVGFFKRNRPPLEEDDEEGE

SMILES	pIC50
NCCCCCC(=O)NCC(=O)NC[C@@H](NS(=O)(=O)c1ccccc1)C(=O)O	5.55
O=C(NC[C@H](NS(=O)(=O)c1ccccc1)C(=O)O)c1ccc(CCC2CCCCN2)cc1 (some centres undefined)	6.89
NCCc1ccc(C(=O)NC[C@H](NS(=O)(=O)c2ccccc2)C(=O)O)cc1	5.31
O=C(NC[C@H](NS(=O)(=O)c1ccccc1)C(=O)O)c1ccc(CN2CCNCC2)cc1	7.47
NCCCOc1ccc(C(=O)NC[C@H](NS(=O)(=O)c2ccccc2)C(=O)O)cc1	7.26
NCCCCOc1ccc(C(=O)NC[C@H](NS(=O)(=O)c2ccccc2)C(=O)O)cc1	7.64

The remaining lines, values ahead:

pIC50	SMILES
3.64	O=C(O)CCNC(=O)c1ccc(N2CCNCC2)cc1
6.57	NCCCc1ccc(C(=O)NC[C@H](NS(=O)(=O)c2ccccc2)C(=O)O)cc1
7.89	NCCCCCOc1ccc(C(=O)NC[C@H](NS(=O)(=O)c2ccccc2)C(=O)O)cc1
4.54	NCCCCC(=O)NCC(=O)NC[C@@H](NS(=O)(=O)c1ccccc1)C(=O)O
6.96	NCCOc1ccc(C(=O)NC[C@H](NS(=O)(=O)c2ccccc2)C(=O)O)cc1
5.04	NCCOc1cccc(C(=O)NC[C@H](NS(=O)(=O)c2ccccc2)C(=O)O)c1
6.42	NCCCCCCC(=O)NCC(=O)NC[C@@H](NS(=O)(=O)c1ccccc1)C(=O)O
< 4.52	NCCCC(=O)NCC(=O)NC[C@@H](NS(=O)(=O)c1ccccc1)C(=O)O
